Assay results as given in patent US20110046070A1, “GENE EXPRESSION INHIBITOR SELECTIVE FOR MATRIX METALLOPROTEINASE-9 GENE” (priority 2008, published 2011).

What was measured:
[1] = tested on: double-stranded DNA of the region from −77 to −70 containing the AP-1 binding site of the human matrix metalloproteinase-9 promoter; test: Gel shift assay (EMSA), AP-1 site oligonucleotide; conditions: 10 μM polyamide, 0.6 μM fluorescently labeled double-stranded DNA, 37° C., 1 hour
Description: (§1) Oligonucleotides were synthesized and annealed to form 2 kinds of double-stranded oligonucleotides corresponding to the promoter base pairs against HMMP9AP1 and HMMP9NFκβ. One single-stranded oligonucleotide was labeled with FITC and hybridized with another single-stranded oligonucleotide as a complementary sequence to prepare double-stranded DNA. Specifically, nucleotides having the following nucleotide sequences were prepared: HMMP9AP1 (match) sense primer (5′[…]) (SEQ ID NO: 8) corresponding to the region from −77 to −70 containing the AP-1 binding site; this sequence plus 2-base mutation, i.e., HMMP9AP1 oligo DNA (mismatch 1) sense primer (5′[…]) (SEQ ID NO: 9); HMMP9NFκβ (match) sense primer (5′[…]) (SEQ ID NO: 10) containing the region from −605 to −599 containing the NFκβ binding site; this sequence plus 2-base mutation, i.e., HMMP9NFκβ (mismatch 1) sense primer (5′[…]) (SEQ ID NO: 11); and antisense primers respectively complementary to these 4 primers. […] The obtained complexes were electrophoresed on a 20% polyacrylamide gel, and the mobilities of the fluorescently labeled double-stranded oligonucleotides were analyzed with a fluorescent image analyzer (FUJIFILM, LAS-4000, Tokyo, Japan). […]

[2] = tested on: liver metastasis of human colon cancer cell strain HT29 transplanted in the spleen; test: Nude mouse models with liver metastasis from human colon cancer; format: in vivo, nude mice; conditions: HT29 cells cultured 1 hour with 10 μM polyamide, splenic transplantation, 6 weeks
Description: 5-week-old male nude mice (BALB/c Nude Mice CBy.Cg-Foxn1nu/J) (Jackson Laboratory) were purchased, maintained in a pathogen-free environment until 6 week olds, and used in the experiment. A human colon cancer cell strain HT29 was monolayer-cultured in a 100-cm^2 cell culture flask and treated with 0.05% trypsin and 0.02% EDTA solutions before reaching confluence. The cells were collected, centrifuged at 800 rpm for 3 minutes, then washed with PBS containing neither Ca^2+ nor Mg^2+, and cultured for 1 hour in a culture solution adjusted to a polyamide concentration of 10 μM or a polyamide-free culture solution. Then, a cell suspension having a concentration of 3×10^6 cells in 100 μl again was prepared using PBS. The thus-prepared 3 groups of the cells containing HMMP9NFκβ polyamide, containing mismatch polyamide and in polyamide-free PBS were separately administered to the nude mice (6 individuals/group). Longitudinal incision was made in the skin on the left side of the abdominal regions of the nude mice under anesthesia. After peritoneotomy to the spleen, 100 μl of the colon cancer cell suspension was transplanted to the splenic subcapsular region using a 29-G injection needle (FIG. 29A). The reliable splenic subcapsular transfer of the cell grafts was confirmed based on change in the color tone of the cell-transplanted site through the splenic capsule and the absence of bleeding or leakage of the suspension. After the transplantation, the mice were raised for 6 weeks and subjected to autopsy. The livers and the spleens were extracted, fixed in a 10% buffered formalin solution, then histologically stained with hematoxylin eosin, and subjected to microscopic observation. […] The liver metastatic foci are circled in the preparations.

[3] = tested on: double-stranded DNA of the region from −605 to −599 containing the NFκβ binding site of the human matrix metalloproteinase-9 promoter; test: Gel shift assay (EMSA), NFκβ site oligonucleotide; conditions: 10 μM polyamide, 0.6 μM fluorescently labeled double-stranded DNA, 37° C., 1 hour
Description: as §1

Row | SMILES | binding to target double-stranded DNA (mobility versus lanes containing only DS) [1] | area of liver metastatic foci [2] | number of liver metastatic foci [2] | size of liver metastatic foci [2] | binding to target double-stranded DNA (mobility versus lanes containing only DS) [3]
1 | CC(=O)Nc1cn(C)c(C(=O)Nc2cc(C(=O)NCCC(=O)Nc3cn(C)c(C(=O)Nc4cc(C(=O)Nc5cc(C(=O)NCCCC(=O)Nc6cn(C)c(C(=O)Nc7cn(C)c(C(=O)Nc8cc(C(=O)NCCC(=O)Nc9cn(C)c(C(=O)Nc%10cc(C(=O)NCCC(=O)NCCCN(C)C)n(C)c%10)n9)n(C)c8)n7)n6)n(C)c5)n(C)c4)n3)n(C)c2)n1 [HMMP9AP1] | lower mobility | – | – | – | –
2 | CC(=O)Nc1cc(C(=O)Nc2cc(C(=O)NCCC(=O)Nc3cc(C(=O)Nc4cc(C(=O)NCCCC(=O)Nc5cn(C)c(C(=O)Nc6cn(C)c(C(=O)NCCC(=O)Nc7cc(C(=O)Nc8cc(C(=O)NCCC(=O)NCCCN(C)C)n(C)c8)n(C)c7)n6)n5)n(C)c4)n(C)c3)n(C)c2)n(C)c1 [HMMP9NFκβ] | – | small | distinctly small | distinctly small | lower mobility
